Tests used:
[1] = test system: CA-70 (DNA, aptamer) GGTCAGCACGCTCCGGACTTGGGTGGGTGGGTTGGGGTACGGTGCGTAATGTGTCGCTGAGCCTGCCAAC; experiment: fluorescence titration; details: 138 mM NaCl, 2.7 mM KCl, 2.5 mM MgCl2, 10 mM PBS pH 7.4, 0.05% TWEEN 20, 25 °C
[2] = test system: CA-40 (DNA, aptamer) ACGCTCCGGACTTGGGTGGGTGGGTTGGGGTACGGTGCGT; experiment: fluorescence titration; details: 138 mM NaCl, 2.7 mM KCl, 2.5 mM MgCl2; 10 mM PBS pH 7.4, 0.05% TWEEN 20, 25 °C; compound 1 µM; 1:1 assumed
[3] = test system: CA-20 (DNA, aptamer) TGGGTGGGTGGGTTGGGGTA; experiment: fluorescence titration; details: 138 mM NaCl, 2.7 mM KCl, 2.5 mM MgCl2; 10 mM PBS pH 7.4, 0.05% TWEEN 20, 25 °C; compound 1 µM; nucleic acid up to 10 µM
[4] = test system: CA-19 (DNA, aptamer) GGGTGGGTGGGTTGGGGTA; experiment: fluorescence titration; details: 138 mM NaCl, 2.7 mM KCl, 2.5 mM MgCl2; 10 mM PBS pH 7.4, 0.05% TWEEN 20, 25 °C; compound 1 µM; nucleic acid up to 10 µM
[5] = test system: CA-18A (DNA, aptamer) TGGGTGGGTGGGTTGGGG; experiment: fluorescence titration; details: 138 mM NaCl, 2.7 mM KCl, 2.5 mM MgCl2, 10 mM PBS pH 7.4, 0.05% TWEEN 20, 25 °C, compound 1 µM
[6] = test system: CA-18B (DNA, aptamer) GGGTGGGTGGGTTGGGGT; experiment: fluorescence titration; details: 138 mM NaCl, 2.7 mM KCl, 2.5 mM MgCl2; 10 mM PBS pH 7.4, 0.05% TWEEN 20, 25 °C; compound 1 µM; nucleic acid up to 10 µM
[7] = test system: CA-17 (DNA, aptamer) GGGTGGGTGGGTTGGGG; experiment: fluorescence titration; details: 138 mM NaCl, 2.7 mM KCl, 2.5 mM MgCl2, 10 mM PBS pH 7.4, 0.05% TWEEN 20, 25 °C, compound 1 µM
[8] = test system: CA-16 (DNA, aptamer) GGGTGGGTGGGTTGGG; experiment: fluorescence titration; details: 138 mM NaCl, 2.7 mM KCl, 2.5 mM MgCl2, 10 mM PBS pH 7.4, 0.05% TWEEN 20, 25 °C, compound 1 µM
[9] = test system: CA-16 (DNA, aptamer) GGGTGGGTGGGTTGGG; experiment: CD melting at 265 nm; details: 138 mM NaCl, 2.7 mM KCl, 2.5 mM MgCl2; 10 mM PBS pH 7.4; compound 10 µM, nucleic acid 10 µM; Tm without compound 73 °C
[10] = test system: CA-23A (DNA, aptamer) ACTTGGGTGGGTGGGTTGGGGTA; experiment: fluorescence titration; details: 138 mM NaCl, 2.7 mM KCl, 2.5 mM MgCl2; 10 mM PBS pH 7.4, 0.05% TWEEN 20, 25 °C; compound 1 µM; 1:1 assumed
[11] = test system: CA-23B (DNA, aptamer) TTTTGGGTGGGTGGGTTGGGGTA; experiment: fluorescence titration; details: 138 mM NaCl, 2.7 mM KCl, 2.5 mM MgCl2; 10 mM PBS pH 7.4, 0.05% TWEEN 20, 25 °C; compound 1 µM; nucleic acid up to 10 µM
[12] = test system: CA-19 (DNA, aptamer) GGGTGGGTGGGTTGGGGTA; experiment: fluorescence polarization; details: 138 mM NaCl, 2.7 mM KCl, 2.5 mM MgCl2; 10 mM PBS pH 7.4, 0.05% TWEEN 20, 25 °C; compound 1 µM; nucleic acid up to 10 µM
[13] = test system: CA-16 (DNA, aptamer) GGGTGGGTGGGTTGGG; experiment: fluorescence polarization; details: 138 mM NaCl, 2.7 mM KCl, 2.5 mM MgCl2; 10 mM PBS pH 7.4, 0.05% TWEEN 20, 25 °C; compound 1 µM

Structure (SMILES)	Kd ([1]; compound 1 µM, 1:1 assumed)	Kd [2]	Kd [3]	Kd [4]	Kd [6]	Kd ([1]; nucleic acid up to 10 µM)	other results
CC[C@@]1(O)C(=O)OCc2c1cc1n(c2=O)Cc2cc3ccccc3nc2-1	4.6 ± 0.3 µM	5.6 ± 0.5 µM	> 10 µM	> 10 µM	> 10 µM	–	Kd ([5]; nucleic acid up to 10 µM): > 10 µM; Kd ([7]; nucleic acid up to 10 µM): > 10 µM; Kd ([8]; 1:1 assumed): 4.2 ± 0.4 µM
Cc1cc2nc3c(=O)[nH]c(=O)nc-3n(C[C@H](O)[C@H](O)[C@H](O)COP(=O)(O)O)c2cc1C	–	–	–	–	–	–	Kd [1]: 8.5 µM
O=C(O)Cc1ccc2[nH]c3ccccc3c(=O)c2c1	–	–	–	–	–	> 10 µM	–
O=C1OC2(c3ccc(O)cc3Oc3cc(O)ccc32)c2ccccc21	–	–	–	–	–	> 10 µM	–

More lines, main results first:

Kd ([1]; compound 1 µM, 1:1 assumed)	Kd [2]	Kd [3]	Kd [4]	Kd [6]	Kd ([1]; nucleic acid up to 10 µM)	Structure (SMILES)	other results
3.6 ± 0.2 µM	3.0 ± 0.2 µM	> 10 µM	> 10 µM	> 10 µM	–	CC[C@@]1(O)C(=O)OCc2c1cc1n(c2=O)Cc2c-1nc1ccccc1c2CN1CCC(N)CC1	Kd ([5]; 1:1 assumed): 3.4 ± 0.3 µM; Kd ([7]; 1:1 assumed): 8.9 ± 1.0 µM; Kd ([8]; 1:1 assumed): 2.7 ± 0.3 µM
1.8 ± 0.3 µM	3.0 ± 0.4 µM	> 10 µM	> 10 µM	> 10 µM	–	CC[C@@]1(O)C(=O)OCc2c1cc1n(c2=O)Cc2c-1nc1ccccc1c2CN1CCC(NC(=O)COCC(=O)NCCOCCOCCOCCOCCOCCOCCOCCOCCOCCOCCOCCN)CC1	binding [9]: yes; Kd [10]: 2.1 ± 0.9 µM; Kd [11]: > 10 µM; Kd ([5]; 1:1 assumed): 6.0 ± 0.8 µM; Kd ([7]; 1:1 assumed): 8.1 ± 0.9 µM; Kd [8]: 1.8 ± 0.3 µM; binding [12]: no; binding [13]: yes
–	–	–	–	–	> 10 µM	O=c1c2ccccc2[nH]c2ccccc12	–

Reference: article PMC3818834 (2013)
